This note sets out measurements from patent US9440950B2, “Arginine methyltransferase inhibitors and uses thereof” (Epizyme, Inc., priority 2013, dated 2016).

Each structure is given as a SMILES string.

The target of the test is T1, Human CARM1 (PRMT4) (Homo sapiens, UniProt Q86X55).
T1 construct: Flag-CARM1-His; made in house; host or cells: HEK 293F cells (BacMam virus, pFastBacMam)
T1 sequence (Q86X55 1-585 isoform Q86X55-1): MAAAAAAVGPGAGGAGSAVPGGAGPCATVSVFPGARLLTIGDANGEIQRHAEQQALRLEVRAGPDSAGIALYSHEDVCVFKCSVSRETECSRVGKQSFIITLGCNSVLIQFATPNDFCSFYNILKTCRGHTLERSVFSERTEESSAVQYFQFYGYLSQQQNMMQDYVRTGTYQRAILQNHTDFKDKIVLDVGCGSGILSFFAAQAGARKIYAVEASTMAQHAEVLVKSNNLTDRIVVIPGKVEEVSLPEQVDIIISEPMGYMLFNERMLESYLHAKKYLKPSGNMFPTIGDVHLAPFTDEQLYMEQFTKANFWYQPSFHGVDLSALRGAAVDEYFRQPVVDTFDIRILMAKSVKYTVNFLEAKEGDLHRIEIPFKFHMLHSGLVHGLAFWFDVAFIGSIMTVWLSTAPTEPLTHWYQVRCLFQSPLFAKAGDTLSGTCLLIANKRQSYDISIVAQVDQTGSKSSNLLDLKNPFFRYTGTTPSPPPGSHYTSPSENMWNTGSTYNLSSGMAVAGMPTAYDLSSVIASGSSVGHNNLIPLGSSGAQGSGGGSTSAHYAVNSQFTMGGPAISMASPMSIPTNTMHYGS
As to the kind of experiment: CARM1 Biochemical Assay. To be noted: peptide substrate, 3H-SAM Flashplate assay. An excerpt: S-adenosylmethionine (SAM), S-adenosylhomocysteine (SAH), bicine, Tween20, dimethylsulfoxide (DMSO), bovine skin gelatin (BSG), sodium butyrate and Tris(2-carboxyethyl)phosphine hydrochloride solution (TCEP) were purchased from Sigma-Aldrich at the highest level of purity possible. ^3H-SAM was purchase from American Radiolabeled Chemicals with a specific activity of 80 Ci/mmol. 384-well streptavidin Flashplates were purchased from PerkinElmer.
Peptide representative of human histone H3 residues 16-30 was synthesized with an N-terminal linker-affinity tag motif and a C-terminal amide cap by 21st Century Biochemicals. The peptide was purified by high-performance liquid chromatography (HPLC) to greater than 95% purity and confirmed by liquid chromatography mass spectrometry (LC-MS). The sequence was Biot-Ahx-[…]-amide and contained a monomethylated arginine at position 26 (SEQ ID NO.:14).
Human CARM1 (PRMT4) (NM_199141.1) transcript clone was amplified from an HEK 293 cDNA library, incorporating a flanking 5′ sequence encoding a FLAG tag ([…]) (SEQ ID NO.:6) fused directly to Ala 2 of CARM1 and 3′ sequence encoding a hexa His sequence ([…]) (SEQ ID NO.:15) fused directly to Ser 608. The gene sequence encoding isoform1 containing a deletion of amino acids 539-561 was amplified subsequently and subcloned into pFastBacMam (Viva Biotech).
Recombinant baculovirus were generated according to Bac-to-Bac kit instructions (Life Technologies). […] Infections were carried out at 37° C. for 48 hours, harvested by centrifugation, and stored at −80° C. for purification.
Column was washed with 500 mM NaCl in buffer A and Flag-CARM1-His was eluted with 200 ug/ml FLAG peptide in buffer A. Pooled fractions were dialyzed in 20 mM Tris, 150 mM NaCl, 5% glycerol and 1 mM DTT, pH 7.8. The purity of recovered protein was 94.
General Procedure for CARM1 Enzyme Assays on Peptide Substrates.
The assays were all performed in a buffer consisting of 20 mM Bicine (pH=7.6), 1 mM TCEP, 0.005% BSG, and 0.002% Tween 20, prepared on the day of use. Compounds in 100% DMSO (1 ul) were spotted into a polypropylene 384-well V-bottom plates (Greiner) using a Platemate Plus outfitted with a 384-channel head (Thermo Scientific). DMSO (1 ul) was added to Columns 11, 12, 23, 24, rows A-H for the maximum signal control and 1 ul of SAH, a known product and inhibitor of CARM1, was added to columns 11, 12, 23, 24, rows I-P for the minimum signal control. A cocktail (40 ul) containing the CARM1 enzyme was added by Multidrop Combi (Thermo-Fisher). The compounds were allowed to incubate with CARM1 for 30 min at room temperature, then a cocktail (10 ul) containing ^3H-SAM and peptide was added to initiate the reaction (final volume=51 ul). The final concentrations of the components were as follows: CARM1 was 0.25 nM, ^3H-SAM was 30 nM, peptide was 250 nM, SAH in the minimum signal control wells was 1 mM, and the DMSO concentration was 2%. The assays were stopped by the addition of non-radiolabeled SAM (10 ul) to a final concentration of 300 uM, which dilutes the ^3H-SAM to a level where its incorporation into the peptide substrate is no longer detectable. 50 ul of the reaction in the 384-well polypropylene plate was then transferred to a 384-well Flashplate and the biotinylated peptides were allowed to bind to the streptavidin surface for at least 1 hour before being washed once with 0.1% Tween20 in a Biotek ELx405 plate washer. The plates were then read in a PerkinElmer TopCount plate reader to measure the quantity of ^3H-labeled peptide bound to the Flashplate surface, measured as disintegrations per minute (dpm) or alternatively, referred to as counts per minute (cpm).
Where dpm=disintegrations per minute, cmpd=signal in assay well, and min and max are the respective minimum and maximum signal controls.
Where top and bottom are the normally allowed to float, but may be fixed at 100 or 0 respectively in a 3-parameter fit. […]
As usually defined, the IC50 is the concentration at which inhibition is half-maximal. In the case of `CNCCN(C)Cc1c[nH]nc1-c1cccnc1` [Compound 1], the IC50 lay within 1.01 to 3 µM.

The compound `CNCCN(C)Cc1c[nH]nc1-c1ccc(O)nc1` [Compound 2] showed an IC50 of no less than 10 µM.

Take `CNCCN(C)Cc1c[nH]nc1-c1ccc(N)nc1` [Compound 3]: the IC50 lay within 3.01 to 10 µM.

`CN(CCN)Cc1c[nH]nc1-c1cncc(S(C)(=O)=O)c1` [Compound 4] registered an IC50 of no less than 10 µM.

Turning to `COc1ccc(-c2n[nH]cc2CN(C)CCN)cn1` [Compound 5], the IC50 was 3.01 to 10 µM.

`Cc1cncc(-c2n[nH]cc2CN(C)CCN)c1` [Compound 6] returned an IC50 of no less than 10 µM.

With `CN(CCN)Cc1c[nH]nc1-c1cncc(F)c1` [Compound 7], the IC50 lay in the range of 1.01 to 3 µM.

`CN(CCN)Cc1c[nH]nc1-c1cccnc1` [Compound 8] displayed an IC50 of 3.01 to 10 µM.

Turning to `CN(CCN)Cc1c[nH]nc1-c1ccncc1` [Compound 9], the IC50 was in the range of 3.01 to 10 µM.

`Cc1cc(-c2n[nH]cc2CN(C)CCN)cnc1Cl` [Compound 10] came in with an IC50 of 0.101 to 1 µM.
